# Test results reported in patent publication US6914045B2, “Glycopeptide antibiotics” (Wyeth Holdings Corporation, priority 2001, dated 2005).
# Columns and labels:
# Assay in all cases: in vitro antibacterial evaluation, MIC by broth dilution
# Assay type in all cases: cell-based
# [1] = system: Escherichia coli; settings: 18 hours at 35° C.
# [2] = system: Enterococcus sp.; settings: broth dilution, 18 hours at 35° C.
# How it was run: (§1)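 Test organisms, which included recent clinical isolates resistant to methicillin, penicillin and/or vancomycin, were inoculated at 5×10^5 CFU/mL into Muller-Hinton II […] containing antibiotic at 64-0.06 μg/mL. Minimum inhibitory concentrations were then read as the lowest level inhibiting growth.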
# [3] = system: Streptococcus sp.; settings: broth dilution, 18 hours at 35° C.
# How it was run: as §1
# [4] = system: Staphylococcus sp.; settings: broth dilution, 18 hours at 35° C.
# How it was run: as §1
smiles,measurement,setting,value
CC(c1ccccc1)C1NC(=O)CNC(=O)C(CO)NC(=O)C(C(O)C2CN(c3ncccn3)C(=N)N2C2OC(CO)C(O)C(O)C2O)NC(=O)C(C(O)C2CNC(=Nc3ncccn3)N2)NC(=O)C(Cc2ccc(OC3OC(CO)C(OC4OC5COC6(OC5C(O)C4O)C4CC5CC(C4)CC6C5)C(O)C3O)cc2)NC1=O (stereo not drawn) [Example 228],MIC Escherichia coli (ATCC 25922),[1],>64 µg/mL
same,MIC Escherichia coli (GC 4559),[1],>64 µg/mL
same,MIC Escherichia coli (GC 4560),[1],16 µg/mL
same,MIC Enterococcus avium (GC 4558),[2],8 µg/mL
same,MIC Enterococcus faecalis (ATCC 29212),[2],32 µg/mL
same,MIC Enterococcus faecalis (GC 2242),[2],32 µg/mL
same,MIC Enterococcus faecalis (GC 2691),[2],32 µg/mL
same,MIC Enterococcus faecalis (GC 3059),[2],32 µg/mL
same,MIC Enterococcus faecalis (GC 4552),[2],32 µg/mL
same,MIC Enterococcus faecalis (GC 4553),[2],16 µg/mL
same,MIC Enterococcus faecalis (GC 4554),[2],32 µg/mL
same,MIC Enterococcus faecalis (GC 6189),[2],32 µg/mL
same,MIC Enterococcus faecium (GC 2243),[2],16 µg/mL
same,MIC Enterococcus faecium (GC 4556),[2],32 µg/mL
same,MIC Enterococcus faecium (GC 4557),[2],16 µg/mL
same,MIC Enterococcus faecalis (ATCC 29212),"[2]; inoculum 5×10^5 CFU/mL, strain ATCC 29212",32 µg/mL
same,MIC Enterococcus faecalis (GC 2242),"[2]; inoculum 5×10^5 CFU/mL, strain GC 2242",32 µg/mL
same,MIC Enterococcus faecium (GC 2243),"[2]; inoculum 5×10^5 CFU/mL, strain GC 2243",16 µg/mL
same,MIC Enterococcus faecalis (GC 2691),"[2]; inoculum 5×10^5 CFU/mL, strain GC 2691",32 µg/mL
same,MIC Enterococcus faecalis (GC 3059),"[2]; inoculum 5×10^5 CFU/mL, strain GC 3059",32 µg/mL
same,MIC Enterococcus faecalis (GC 4552),"[2]; inoculum 5×10^5 CFU/mL, strain GC 4552",32 µg/mL
same,MIC Enterococcus faecalis (GC 4553),"[2]; inoculum 5×10^5 CFU/mL, strain GC 4553",16 µg/mL
same,MIC Enterococcus faecalis (GC 4554),"[2]; inoculum 5×10^5 CFU/mL, strain GC 4554",32 µg/mL
same,MIC Enterococcus faecium (GC 4556),"[2]; inoculum 5×10^5 CFU/mL, strain GC 4556",32 µg/mL
same,MIC Enterococcus faecium (GC 4557),"[2]; inoculum 5×10^5 CFU/mL, strain GC 4557",16 µg/mL
same,MIC Enterococcus avium (GC 4558),"[2]; inoculum 5×10^5 CFU/mL, strain GC 4558",8 µg/mL
same,MIC Enterococcus faecalis (GC 6189),"[2]; inoculum 5×10^5 CFU/mL, strain GC 6189",32 µg/mL
same,MIC Streptococcus agalactiae (GC 4564),[3],16 µg/mL
same,MIC Streptococcus pneumoniae (ATCC 6301),[3],8 µg/mL
same,MIC Streptococcus pneumoniae (GC 1894),[3],8 µg/mL
same,MIC Streptococcus pneumoniae (GC 4565),[3],8 µg/mL
same,MIC Streptococcus pyogenes (GC 4563),[3],8 µg/mL
same,MIC Streptococcus pneumoniae (ATCC 6301),"[3]; inoculum 5×10^5 CFU/mL, strain ATCC 6301",8 µg/mL
same,MIC Streptococcus pneumoniae (GC 1894),"[3]; inoculum 5×10^5 CFU/mL, strain GC 1894",8 µg/mL
same,MIC Streptococcus pyogenes (GC 4563),"[3]; inoculum 5×10^5 CFU/mL, strain GC 4563",8 µg/mL
same,MIC Streptococcus agalactiae (GC 4564),"[3]; inoculum 5×10^5 CFU/mL, strain GC 4564",16 µg/mL
same,MIC Streptococcus pneumoniae (GC 4565),"[3]; inoculum 5×10^5 CFU/mL, strain GC 4565",8 µg/mL
same,MIC Coagulase Negative Staphylococcus (GC 4547),[4],16 µg/mL
same,MIC Coagulase Negative Staphylococcus (GC 4548),[4],16 µg/mL
same,MIC Coagulase Negative Staphylococcus (GC 4549),[4],16 µg/mL
same,MIC Coagulase Negative Staphylococcus (GC 4551),[4],16 µg/mL
same,MIC Staphylococcus aureus-SMITH (GC 4543),[4],32 µg/mL
same,MIC Staphylococcus haemolyticus (GC 4546),[4],16 µg/mL
same,MIC Staphylococcus aureus-SMITH (GC 4543),[4]; strain GC 4543,32 µg/mL
same,MIC Staphylococcus haemolyticus (GC 4546),[4]; strain GC 4546,16 µg/mL
same,MIC Coagulase Negative Staphylococcus (GC 4547),[4]; strain GC 4547,16 µg/mL
same,MIC Coagulase Negative Staphylococcus (GC 4548),[4]; strain GC 4548,16 µg/mL
same,MIC Coagulase Negative Staphylococcus (GC 4549),[4]; strain GC 4549,16 µg/mL
same,MIC Coagulase Negative Staphylococcus (GC 4551),[4]; strain GC 4551,16 µg/mL
same,MIC Staphylococcus aureus (ATCC 29213),[4]; strain ATCC 29213,32 µg/mL
same,MIC Staphylococcus aureus (GC 1131),[4]; strain GC 1131,32 µg/mL
same,MIC Staphylococcus aureus (GC 3051),[4]; strain GC 3051,32 µg/mL
same,MIC Staphylococcus aureus (GC 3053),[4]; strain GC 3053,32 µg/mL
same,MIC Staphylococcus aureus (GC 4541),[4]; strain GC 4541,32 µg/mL
same,MIC Staphylococcus aureus (GC 4542),[4]; strain GC 4542,32 µg/mL
same,MIC Staphylococcus aureus (GC 4544),[4]; strain GC 4544,32 µg/mL
same,MIC Staphylococcus aureus (GC 4545),[4]; strain GC 4545,32 µg/mL
